Measurements taken from publication PMC11900122, “Study of Intracellular Peptides of the Central Nervous System of Zebrafish (Danio rerio) in a Parkinson’s Disease Model” (International Journal of Molecular Sciences, 2025).

tested on: Zebrafish (Danio rerio) larvae; assay: Behavioral assay in 6-OHDA zebrafish larvae model; type: in vivo; settings: larvae 4 dpf, 750 µM 6-OHDA 24 h, then peptide 50 µM for 24 h; filmed 5 min, ToxTrac; 12 embryos per group
Protocol: Wild-type adult D. rerio (zebrafish) were obtained from a licensed commercial distributor. They were maintained on a 14 h light–10 h dark photoperiod in fresh filtered water at 28 °C and fed twice a day with dry food and once a day with Artemia sp. Reproduction was performed in individual fish tanks in a 1 male–1 female proportion, with pebbles and artificial plants. Eggs were collected, selected and maintained in an incubator at 28 °C until 4 days post fertilization (dpf). This study followed the guidelines of the National Council for Animal Experimentation Control (CONCEA) and was approved by the Ethics Commission for Animal Use (CEUA) at the Bioscience Institute of São Paulo State University (São Vicente, Brazil: Protocol Number 06/2023, approved on 22 June 2023).
Zebrafish (Danio rerio) larvae at 4 dpf were transferred to a 96-well plate, a single larva per well. Larvae were treated with 750 µM 6-OHDA in system water for 24 h in an incubator at 28 °C. Then, solution was changed to system water with each peptide in different concentrations—10 µM, 20 µM, 30 µM, 40 µM and 50 µM [47]—and larvae were incubated at 28 °C for another 24 h. Finally, each larva was filmed for 5 min, and videos were processed by an automated tracking system (ToxTrac Version 2.96). Analysis parameters were mean speed (mm/s) and total distance swum (mm) (Figure 8). Statistical analysis was performed using a one-way analysis of variance (ANOVA) test followed by Dunnett’s test for multiple comparisons. Data were statistically analyzed using GraphPad Prism Software (GraphPad Software Inc., San Diego, CA, USA).
Figure 8 Zebrafish larva model. Zebrafish larvae were immersed in 6-OHDA 750 µM for 24 h, then in each peptide at 10 µM, 20 µM, 30 µM, 40 µM or 50 µM for 24 h. Videos were recorded for 5 min and then analyzed by software (ToxTrac Version 2.96). Parameters were mean speed and distance traveled.

Sequence	Mean speed, compared to the control group	Total distance swum, compared to the control group
GVGFATRQV [p-FABP7]	statistically equal results to the control group	statistically equal results to the control group
TIEQEKQAGSS [p-Tbeta4, […], derived from thymosin beta-4]	statistically equal results to the control group	statistically equal results to the control group
TLDLNEMDYIQRGGPE [p-MRPS36, peptide derived from mitochondrial ribosomal protein S36]	statistically equal results to the control group	statistically equal results to the control group
